From patent publication US12304912B2, “Fused bicyclic RAF inhibitors and methods for use thereof” (Jazz Pharmaceuticals Ireland Limited, priority 2020, dated 2025) come the findings set out here.

Molecules are shown by their SMILES. Structures can show the parent of a compound that is named as a salt. Where two headings read alike, the source gives them in different places.

A short description of data set [1]: Microsomal stability assay, human liver microsomes (HLM). It counts as in vitro ADME. The conditions noted are these: 0.5 mg/mL protein, 1 μM substrate. A digest of the protocol:
(§1)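 Substrate depletion: 1 μM compound incubated at 37° C. with cryopreserved mouse or human liver microsomes at 0.5 mg·mL^−1 protein. Timed aliquots quenched in ice-cold organic solvent and measured by LC-MS/MS; t1/2 and CLint derived from the slope of ln % remaining versus time.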
For orientation: Liver microsomes are vesicles of endoplasmic reticulum, rich in cytochrome P450 enzymes.

Data set [2] is described as follows: Plasma protein binding assay, human plasma (hPPB). Conditions: 5 μM. It counts as in vitro ADME. In outline:
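Equilibrium dialysis of 5 μM compound in previously frozen human or mouse plasma against phosphate buffer, 4 h at 37 °C. Both chambers quantified by LC-MS/MS; % free = (1−((PC−PF)/PC))×100.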

Data set [3] relates to RAF dimers in HCT-116 cells. Briefly: HCT-116 AlphaLISA SureFire pERK1/2 cellular assay (dimer). The conditions noted are these: Homo sapiens. It counts as cell-based. In outline: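 HCT-116 (KRAS G13D) cells, 30,000/well, pretreated 1 h with 1 μM Encorafenib to induce RAF dimers, washed, then dosed 1 h at 37° C with compound (10-point, top 10 μM, 1/2 log steps) in growth medium. pERK1/2 (T202/Y204) measured by AlphaLISA SureFire; absolute IC50 versus DMSO control.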

A short description of data set [4]: Microsomal stability assay, mouse liver microsomes (MLM). It counts as in vitro ADME. The conditions noted are these: 0.5 mg/mL protein, 1 μM substrate. A digest of the protocol:
as §1

Where [5] appears, read: equilibrium dialysis 4 hours at 37° C.
[6] abbreviates: HCT-116, HCT116 cells, dimer, 1 hr, read-out: pERK HCT116 dimer (1 hr) plC50 (converted).
[7] abbreviates: equilibrium dialysis 4 hours 37° C.
[8] abbreviates: HCT-116, HCT116 cells pre-dosed with 1 μM Encorafenib, 1 hr, read-out: pERK HCT116 dimer (1 hr) pIC50 (converted).

A word on the microsomal CLint: it is the capacity of the preparation to metabolise the compound, expressed as a volume cleared per time. With `O=C(Nc1nccc(Oc2ccc3c(c2)CC(c2nc(-c4ccccc4)c[nH]2)CO3)n1)C1CC1` (stereo not shown) [Compound 148, N-[4-[3-(4-phenyl-1H-imidazol-2-yl)chroman-6-yl]oxypyrimidin-2-yl]cyclopropanecarboxamide], the microsomal CLint at 1 μM in data set [1] (37° C.) is 132 µL/min/mg; in data set [4] (37° C.), 211 µL/min/mg. Also, in data set [2] (setting [5]), the “hPPB (% free)” value is given as 0.9 % free. Besides, the IC50 in data set [3] (setting [6]) is 0.457 µM.

As to `Cc1cc(-c2c[nH]c(C3COc4ccc(Oc5ccnc6c5CCC(=O)N6)cc4C3)n2)n(C(C)C)n1` (stereo not shown) [Compound 112, 5-[3-[4-(2-isopropyl-5-methyl-pyrazol-3-yl)-1H-imidazol-2-yl]chroman-6-yl]oxy-3,4-dihydro-1H-1,8-naphthyridin-2-one], the microsomal CLint at 1 μM is 81.5 µL/min/mg in data set [1] (37° C.) and 55.5 µL/min/mg in data set [4] (37° C.). Also, the “hPPB (% free)” value in data set [2] (setting [5]) is recorded as 1.4 % free. Also, the IC50 in data set [3] (setting [6]) is 0.257 µM.

Consider `O=C1CCc2c(Oc3ccc4c(c3)CC(c3nc5cc(F)c(F)cc5[nH]3)CO4)ccnc2N1` (stereo not shown) [Compound 23], for which the results for the microsomal CLint at 1 μM in data set [1] and in data set [4] were 29.9 µL/min/mg and 30.5 µL/min/mg, respectively. Besides, the “hPPB (% free)” value in data set [2] (setting [7]) was determined as 0.5 % free. In addition, the IC50 in data set [3] (setting [8]) is 0.224 µM.

As for `O=C1CCc2c(Oc3ccc4c(c3)CN(c3nc(-c5ccccc5)n[nH]3)CC4)ccnc2N1` [Compound 44, 5-[[2-(3-phenyl-1H-1,2,4-triazol-5-yl)-3,4-dihydro-1H-isoquinolin-7-yl]oxy]-3,4-dihydro-1H-1,8-naphthyridin-2-one hydrochloride], the microsomal CLint at 1 μM came to 14.2 µL/min/mg in data set [1] and 11 µL/min/mg in data set [4]. Besides, in data set [2] (setting [7]), the “hPPB (% free)” value is 0.3 % free. For the same molecule, the IC50 in data set [3] (HCT-116, 1 h, read-out: pERK HCT116 dimer (1 hr) pIC50 (converted)) was 0.288 µM.

`O=C1CCc2c(Oc3ccc4c(c3)CC(c3nc(-c5cncc(C(F)(F)F)c5)c[nH]3)CO4)ccnc2N1` (stereo not shown) [Compound 103, 5-[3-[4-[5-(trifluoromethyl)-3-pyridyl]-1H-imidazol-2-yl]chroman-6-yl]oxy-3,4-dihydro-1H-1,8-naphthyridin-2-one]: the microsomal CLint at 1 μM in data set [1] (37° C.) was determined as 11.6 µL/min/mg; in data set [4] (37° C.) it was 4.4 µL/min/mg. Moreover, the “hPPB (% free)” value in data set [2] (setting [5]) amounted to 0.6 % free. Besides, the IC50 in data set [3] (setting [6]) is 0.107 µM.

As to `O=C(Nc1cc(Oc2ccc3c(c2)CC(c2nc(-c4ccccc4)c[nH]2)CO3)ccn1)C1CC1(F)F` (stereo not shown) [Compound 137, 2,2-difluoro-N-[4-[3-(4-phenyl-1H-imidazol-2-yl)chroman-6-yl]oxy-2-pyridyl]cyclopropanecarboxamide], in data set [1] (37° C.), the microsomal CLint at 1 μM amounted to 32.6 µL/min/mg. The “hPPB (% free)” value in data set [2] (setting [5]) amounted to 0.1 % free. Moreover, the IC50 in data set [3] (setting [6]) was 0.0282 µM. Besides, the “MLM (CLint)” value in data set [4] (37° C.) came to 277 µL/min/mg.

Consider `Cc1cc2nc(C3COc4ccc(Oc5ccnc6c5CCC(=O)N6)cc4C3)[nH]c2cc1C` (stereo not shown) [Compound 29], for which the results for the microsomal CLint at 1 μM in data set [1] and in data set [4] were 119 µL/min/mg and 77.6 µL/min/mg, respectively. The “hPPB (% free)” value in data set [2] (setting [7]) worked out at 0.2 % free. For the same molecule, the IC50 in data set [3] (setting [8]) was 0.219 µM.

In the case of `O=C(Nc1cc(Oc2ccc3c(c2)CC(c2nc(-c4ccccc4)c[nH]2)CO3)ccn1)C1CC(F)(F)C1` (stereo not shown) [Compound 139], the microsomal CLint at 1 μM in data set [1] (37° C.) came out at 99.8 µL/min/mg. Also, in data set [2] (setting [5]), the “hPPB (% free)” value is below 0.1 % free. Also, the IC50 in data set [3] (setting [6]) was 0.219 µM. Moreover, the “MLM (CLint)” value in data set [4] (37° C.) stood at 277 µL/min/mg.

In the case of `O=C(Nc1cc(Oc2ccc3c(c2)CC(c2nc(-c4ccccc4)c[nH]2)CO3)ccn1)C1(F)CC1` (stereo not shown) [Compound 138], the microsomal CLint at 1 μM in data set [1] (37° C.) stood at 134 µL/min/mg. For the same molecule, the “hPPB (% free)” value in data set [2] (setting [5]) is given as below 0.1 % free. Moreover, in data set [3] (setting [6]), the IC50 is 0.813 µM. In addition, the “MLM (CLint)” value in data set [4] (37° C.) was determined as 277 µL/min/mg.

Take `Cn1nc(C(F)(F)F)cc1-c1c[nH]c(C2COc3ccc(Oc4ccnc5c4CCC(=O)N5)cc3C2)n1` (stereo not shown) [Compound 107, 5-[3-[4-[2-methyl-5-(trifluoromethyl)pyrazol-3-yl]-1H-imidazol-2-yl]chroman-6-yl]oxy-3,4-dihydro-1H-1,8-naphthyridin-2-one]: the microsomal CLint at 1 μM in data set [1] (37° C.) was found to be 30.3 µL/min/mg; in data set [4] (37° C.) it was 12.5 µL/min/mg. The “hPPB (% free)” value in data set [2] (setting [5]) was found to be 0.7 % free. For the same molecule, in data set [3] (setting [6]), the IC50 was 0.0575 µM.
